Mean particle size data for one compound are collected here from patent US20230143042A1, “SYSTEM AND METHOD FOR AEROSOL PARTICLE PRODUCTION OF SUBMICRON AND NANO STRUCTURED MATERIALS” (The Trustees of Princeton University, priority 2020, published 2023).

This series can be described thus: Size of dried aerosol particles by scanning electron microscopy. It is filed as physicochemical. As to conditions: atomized at 1.5 bar gauge (TIPT-based sol 2.5 bar), dried in room air ~23° C., ~30% RH. As to the method:
Various concentrations (e.g., 0.5-15% wt.) of solutions of sodium chloride in deionized water was prepared by mixing the crystals of table salt (NaCl) with deionized water at 45° C. for 15 min. The procedure for preparing precursor of silica (SiO2) was: tetraethoxysilane (TEOS), ethanol, deionized water, and HCl (mole ratio 1:3.8:1:5×10−5) were mixed at 60° C. for 120 min and then aged at room temperature under continuous stirring up to 43 hours. For synthesis of titania (TiO2) particles, titanium (IV) tetraisopropoxide (TIPT) and titanium (IV) butoxide (TBT)-based precursors were utilized. […]
For the salt solutions, the temperature and relative humidity of room air used for drying of droplets were ˜23° C. and ˜30% respectively. […] Provided the measured air velocity used to dry the droplets is ˜0.1-0.5 m/s (laminar flow, Re=300-1600), in terms of the drying kinetics of a single droplet, the generated droplets are expected to turn into dry particles after traveling 0.04-400 μm in room air, whereas the overall particle residence time in the setup is ˜1-5 s, which is much longer than the needed drying time. […]

As for `[Cl-].[Na+]` [NaCl, sodium chloride], the mean particle size is on record as 227 nm.
